Data taken from the NIST ThermoML archive (doi:10.1016/j.fluid.2014.09.014).

Test: refractive index (other wavelength) (dimensionless); xn = mol fraction of the nth substance listed
Settings: 298.15 K, 101 kPa, Liquid, Standard Abbe refractometry

CC(C)OC(C)C [diisopropyl ether] + CO
refractive index
Settings	Wavelength=587.6 nm	Wavelength=589.3 nm	Wavelength=632.8 nm	Wavelength=644 nm
x2 = 0	–	1.3653	1.36402	1.36373
x2 = 0.0423	–	1.36528	1.364	1.3637
x2 = 0.0424	–	1.36525	1.36397	1.36367
x2 = 0.082	–	1.36523	1.36395	1.36365
x2 = 0.0822	–	1.36524	1.36396	1.36367
x2 = 0.1171	–	1.36508	1.36381	1.36352
x2 = 0.1271	–	1.3651	1.36381	1.36352
x2 = 0.1827	–	1.36473	1.36346	1.36317
x2 = 0.2162	–	1.36528	1.364	1.3637
x2 = 0.251	–	1.36465	1.36338	1.36308
x2 = 0.3298	–	1.36386	1.3626	1.36231
x2 = 0.3577	–	1.36246	1.36121	1.36091
x2 = 0.4497	–	1.36158	1.36034	1.36004
x2 = 0.4525	1.36217	1.36212	1.36087	1.36057
x2 = 0.522	1.35991	1.35986	1.35863	1.35833
x2 = 0.5543	1.35952	1.35947	1.35812	1.35777
x2 = 0.609	1.35663	1.35658	1.35536	1.35507
x2 = 0.6529	1.35515	1.3551	1.35389	1.3536
x2 = 0.7504	1.3513	1.35125	1.35005	1.34978
x2 = 0.804	1.3471	1.34706	1.3459	1.34562
x2 = 0.807	1.34699	1.34694	1.34578	1.3455
x2 = 0.8727	1.34182	1.34177	1.34062	1.34036
x2 = 0.9233	1.33495	1.3349	1.33379	–
x2 = 0.9253	1.33679	1.33674	1.33564	–
x2 = 0.9527	1.33364	1.33359	1.33248	–
x2 = 0.9773	1.33017	1.33012	1.32903	–
x2 = 0.989	1.329	1.32895	1.32786	–
x2 = 0.9964	1.32759	1.32754	1.32645	–
